Reference: the NIST ThermoML archive (doi:10.1016/j.jct.2014.04.026)
“And” between values parts separate entries of the source, which are not always exact repeats. Identical values can stand only once. Numbers after ± are expanded uncertainties.

Columns and labels:
[1] = Molar enthalpy of transition or fusion; conditions: Crystal; DSC
[2] = for vapor or sublimation pressure: Closed cell (Static) method; for Normal melting temperature: DTA

Cn1cccn1 [1-methyl-1H-pyrazole]
Conditions | Molar enthalpy of transition or fusion [kcal/mol]
[1] | 2.72 ± 0.0956

[2], Liquid
Conditions | vapor or sublimation pressure [kPa]
253.9 K | 0.0681 ± 0.0014
255.85 K | 0.08089 ± 0.0016
257.81 K | 0.0948 ± 0.0018
260.03 K | 0.1138 ± 0.0021
261.7 K | 0.1308 ± 0.002
263.65 K | 0.1508 ± 0.0022
265.63 K | 0.1755 ± 0.0024
267.62 K | 0.2033 ± 0.0026
269.55 K | 0.2358 ± 0.0029
271.5 K | 0.2714 ± 0.0032
273.47 K | 0.3111 ± 0.0035
275.47 K | 0.3597 ± 0.0039
277.42 K | 0.4115 ± 0.0044
279.4 K | 0.4704 ± 0.0049
281.39 K | 0.539 ± 0.0055
283.35 K | 0.6108 ± 0.0061
285.3 K | 0.6958 ± 0.0069
287.32 K | 0.7878 ± 0.0077
289.32 K | 0.893 ± 0.0086
291.27 K | 1.01 ± 0.01
293.27 K | 1.147 ± 0.011

Conditions | Normal melting temperature [°C]
[2], Crystal | -43.9 ± 0.4

Cn1ccc2ccccc21 [1-methylindole]
Conditions | Molar enthalpy of transition or fusion [kcal/mol]
[1] | 2.61 ± 0.0956

[2]
Conditions | vapor or sublimation pressure [kPa]
267.62 K, Crystal | 0.00033 ± 0.0001
268.58 K, Liquid | 0.00043 ± 0.0001
268.6 K, Crystal | 0.00037 ± 0.0001
269.57 K, Crystal | 0.00042 ± 0.0001
270.55 K, Crystal | 0.00048 ± 0.0001
270.56 K, Liquid | 0.00054 ± 0.0001
271.57 K, Crystal | 0.00054 ± 0.0001
272.5 K, Liquid | 0.00066 ± 0.0001
272.52 K, Crystal | 0.0006 ± 0.0001
273.51 K, Crystal | 0.00068 ± 0.0001
274.48 K, Liquid | 0.00081 ± 0.0001
274.5 K, Crystal | 0.00077 ± 0.0001
275.47 K, Crystal | 0.00086 ± 0.0001
276.45 K, Liquid | 0.00097 ± 0.0001
278.42 K, Liquid | 0.0012 ± 0.00011
280.39 K, Liquid | 0.00145 ± 0.00011
282.35 K, Liquid | 0.00176 ± 0.00012
284.36 K, Liquid | 0.00211 ± 0.00013
286.31 K, Liquid | 0.00252 ± 0.00014
288.32 K, Liquid | 0.00302 ± 0.00015
290.27 K, Liquid | 0.00358 ± 0.00017
290.29 K, Liquid | 0.00359 ± 0.00017
292.29 K, Liquid | 0.00431 ± 0.0002
294.24 K, Liquid | 0.00507 ± 0.00022
296.28 K, Liquid | 0.00607 ± 0.00026
298.2 K, Liquid | 0.0071 ± 0.0003
300.25 K, Liquid | 0.00844 ± 0.00035
302.2 K, Liquid | 0.00987 ± 0.0004
304.21 K, Liquid | 0.01167 ± 0.00047
306.16 K, Liquid | 0.01359 ± 0.00052
308.14 K, Liquid | 0.0158 ± 0.00056
310.17 K, Liquid | 0.01854 ± 0.0006
312.14 K, Liquid | 0.02149 ± 0.00064
314.11 K, Liquid | 0.02521 ± 0.0007
316.14 K, Liquid | 0.029 ± 0.00076
318.06 K, Liquid | 0.03354 ± 0.00083
320.05 K, Liquid | 0.03839 ± 0.00091
322.02 K, Liquid | 0.0445 ± 0.001
324.04 K, Liquid | 0.05044 ± 0.0011
326.02 K, Liquid | 0.05848 ± 0.0012
327.98 K, Liquid | 0.06647 ± 0.0013
329.95 K, Liquid | 0.07637 ± 0.0015
331.91 K, Liquid | 0.08658 ± 0.0016
333.89 K, Liquid | 0.09881 ± 0.0018
335.91 K, Liquid | 0.1114 ± 0.002
337.89 K, Liquid | 0.1263 ± 0.0023
339.81 K, Liquid | 0.1424 ± 0.0021
341.9 K, Liquid | 0.1624 ± 0.0023

Conditions | Normal melting temperature [°C]
[2], Crystal | 3.4 ± 0.4

Cn1cnc2ccccc21 [1-methylbenzimidazole]
Conditions | Molar enthalpy of transition or fusion [kcal/mol]
[1] | 3.32 ± 0.0956

[2]
Conditions | vapor or sublimation pressure
301.22 K, Crystal | 0.00026 ± 0.00011 kPa
303.14 K, Crystal | 0.00033 ± 0.00011 kPa
303.16 K, Liquid | 0.00051 ± 0.00011 kPa
305.14 K, Crystal | 0.00042 ± 0.00011 kPa
305.18 K, Crystal | 0.00041 ± 0.00011 kPa
305.2 K, Liquid | 0.00062 ± 0.00011 kPa
307.12 K, Liquid | 0.00074 ± 0.00011 kPa
307.14 K, Crystal | 0.00051 ± 0.00011 kPa
309.1 K, Liquid | 0.00089 ± 0.00011 kPa
309.11 K, Crystal | 0.00063 ± 0.00011 kPa
311.07 K, Crystal | 0.00078 ± 0.00011 kPa
311.09 K, Liquid | 0.00107 ± 0.00012 kPa
313.09 K, Crystal | 0.00097 ± 0.00012 kPa
313.12 K, Liquid | 0.00128 ± 0.00012 kPa
315.09 K, Liquid | 0.00153 ± 0.00012 kPa
315.1 K, Crystal | 0.00119 ± 0.00012 kPa
317.04 K, Liquid | 0.00182 ± 0.00013 kPa
317.06 K, Crystal | 0.00146 ± 0.00012 kPa
319.03 K, Crystal | 0.00178 ± 0.00013 kPa
319.07 K, Liquid | 0.00217 ± 0.00014 kPa
321.01 K, Liquid | 0.00255 ± 0.00015 kPa
321.02 K, Crystal | 0.00217 ± 0.00014 kPa
322.97 K, Crystal | 0.00264 ± 0.00015 kPa
322.99 K, Liquid | 0.00304 ± 0.00016 kPa
325.01 K, Crystal | 0.00324 ± 0.00017 kPa
327 K, Crystal | 0.00392 ± 0.00019 kPa
328.91 K, Crystal | 0.00473 ± 0.00022 kPa
332.95 K, Liquid | 0.00656 ± 0.00028 kPa
334.92 K, Liquid | 0.00759 ± 0.00032 kPa
336.91 K, Liquid | 0.0089 ± 0.00037 kPa
336.92 K, Liquid | 0.00896 ± 0.00037 kPa
338.9 K, Liquid | 0.01031 ± 0.00042 kPa
340.86 K, Liquid | 0.01187 ± 0.00048 kPa
340.87 K, Liquid | 0.01203 ± 0.00048 kPa
342.88 K, Liquid | 0.01375 ± 0.00053 kPa
344.83 K, Liquid | 0.01603 ± 0.00056 kPa and 0.01591 ± 0.00056 kPa
346.81 K, Liquid | 0.01835 ± 0.0006 kPa
348.79 K, Liquid | 0.02107 ± 0.00064 kPa
350.76 K, Liquid | 0.02401 ± 0.00068 kPa
352.73 K, Liquid | 0.02767 ± 0.00074 kPa and 0.02759 ± 0.00074 kPa
354.7 K, Liquid | 0.03132 ± 0.0008 kPa
356.69 K, Liquid | 0.03607 ± 0.00087 kPa
358.67 K, Liquid | 0.04098 ± 0.00095 kPa
360.63 K, Liquid | 0.04632 ± 0.001 kPa
362.6 K, Liquid | 0.05225 ± 0.0011 kPa
364.59 K, Liquid | 0.05898 ± 0.0012 kPa
366.55 K, Liquid | 0.06653 ± 0.0013 kPa
368.53 K, Liquid | 0.07509 ± 0.0015 kPa
370.5 K, Liquid | 0.08443 ± 0.0016 kPa
372.49 K, Liquid | 0.09469 ± 0.0018 kPa

Conditions | Normal melting temperature [°C]
[2], Crystal | 56.1 ± 0.4
